In publication PMC11436701 (Scientific Reports, 2024):

Target: AChE (Electrophorus electricus, 220 U·mg^-1) (Electrophorus electricus, UniProt O42275)
Experiment: modified Ellman assay, […] nm
Type: biochemical

Chain of AChE (Electrophorus electricus, 220 U·mg^-1) (O42275 24-633): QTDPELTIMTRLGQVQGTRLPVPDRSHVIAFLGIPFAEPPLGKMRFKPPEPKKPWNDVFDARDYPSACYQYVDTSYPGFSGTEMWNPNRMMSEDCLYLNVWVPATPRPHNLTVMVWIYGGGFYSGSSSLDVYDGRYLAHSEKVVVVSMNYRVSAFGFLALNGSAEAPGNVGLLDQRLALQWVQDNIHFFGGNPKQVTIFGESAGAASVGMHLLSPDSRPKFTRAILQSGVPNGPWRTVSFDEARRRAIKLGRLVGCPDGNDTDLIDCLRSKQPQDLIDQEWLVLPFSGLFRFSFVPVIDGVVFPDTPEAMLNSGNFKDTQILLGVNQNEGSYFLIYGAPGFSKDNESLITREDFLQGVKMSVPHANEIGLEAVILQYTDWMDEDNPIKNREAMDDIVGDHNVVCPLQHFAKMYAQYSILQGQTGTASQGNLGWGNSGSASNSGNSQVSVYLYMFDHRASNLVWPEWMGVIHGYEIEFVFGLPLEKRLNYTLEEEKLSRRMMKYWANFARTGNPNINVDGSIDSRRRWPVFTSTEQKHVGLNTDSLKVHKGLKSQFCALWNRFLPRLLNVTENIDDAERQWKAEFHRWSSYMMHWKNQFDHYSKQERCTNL

| SMILES | IC50 [µM] |
| --- | --- |
| CCOP(=S)(OCC)Oc1nc(Cl)c(Cl)cc1Cl [CPF, chlorpyrifos] | 73 |
| COP(=O)(OC)OC=C(Cl)Cl [DDVP, dichlorvos] | 1.25 |
